Here are results for 3 compounds from US6022983A, “Pyronin antibacterials, process and novel intermediates thereto” (Scriptgen Pharmaceuticals, Inc., priority 1998, dated 2000).

The test system of assay [1] is E. coli* (mutant strain that has permeabilized cell wall). The assay is described as follows: Broth microdilution MIC, E. coli* mutant with permeabilized cell wall. In kind it is cell-based. To be noted: Escherichia coli, read-out: MIC E. coli*. As for the experimental part:
(§1) Different dilutions are performed for natural product extracts.

A further assay relates to S. aureus*. The assay is described as follows: Broth microdilution MIC, S. aureus* mutant strain. To be noted: Staphylococcus aureus, read-out: MIC S. aureus*. In kind it is cell-based. Here is the method:
as §1

A further assay relates to S. aureus. As to the kind of experiment: Broth microdilution MIC, S. aureus. In kind it is cell-based. The following applies: for MIC: Staphylococcus aureus, Table II. Here is the method:
as §1

The test system of a further assay is E. coli. The assay is described as follows: Broth microdilution MIC, E. coli. The assay is classed as cell-based. To be noted: Escherichia coli; Table II. As for the experimental part:
as §1

In another assay the target is E. coli RNA polymerase (Escherichia coli, UniProt P0A8T7+P0A8V2). The assay is described as follows: In vitro transcription assay, E. coli RNA polymerase. In kind it is biochemical. To be noted: for IC50: Table II, read-out: In vitro transcription (E.coli RNAP) IC50 (converted); for relative potency in in vitro transcription assay (FIG. 20a,b): comparison in words. As for the experimental part: In vitro transcription reactions. [α^32 P] UTP-incorporated RNA was synthesized in 50 μl reaction volumes containing transcription buffer (50 mM Tris-HCl, pH 8.0, 200 mM KCl, 10 mM MgCl2, 10 mM DTT and 1.5 μM BSA), 1 μg of DNA template, 4 μM UTP containing 5 μCi of [α^32 P] UTP, 400 μM each of ATP, GTP, and CTP. After incubation for 60 minutes at 25° C., the reaction is terminated with 100 μl 10% TCA, which also precipitates the newly transcribed RNA.
Biological Evaluation of (±)-Myxopyronin A & B. The biological activities of the myxypyronins were evaluated with an in vitro transcription assay using E. coli RNA polymerase (FIG. 20a,b). […] As a validation of the in vitro transcription assay, a known transcription inhibitor, rifampicin, was included in the assay.

The test system of assay [2] is rifampicin resistant strains. As to the kind of experiment: microbe, parasite or virus in culture. The following applies: Staphylococcus aureus. As for the experimental part: (§2) Microdilution Minimal Inhibitory Concentration (MIC) and Minimum Bactericidal Concentration (MBC) Assays
(§3) The MIC is reported as a range between the concentration at which no growth is observed and the concentration of the dilution which immediately followed. Selected inhibitors from the RNA polymerase screen described above were tested for their ability to inhibit bacterial growth in a broth microdilution assay as follows. […] Dilution of antimicrobial agents is performed in a sterile, covered 96-well microliter plate with flat bottom wells (Costar #9017), and each well contains 100 μL of both +/- antimicrobial agent. The final concentrations of the small molecule antimicrobial agents are 100, 50, 25, 12.5, 6.25, 3.12, 1.56, 0.78, 0.39, 0.20, 0.10, and 0.05 μg/mL, respectively. Different dilutions are performed for natural product extracts. They are first diluted 100-fold with Mueller-Hinton broth. The final dilutions of the natural product extracts are 200, 400, 800, 1600, 3200, 6400, 12800, 25600, 51200, 1×105, 2×105, and 4×105 -fold. A 1 % DMSO (no-drug) row is prepared in Mueller-Hinton broth as a control for 100% growth on each plate. A Mueller-Hinton broth only with no bacteria growth is also included as a negative control for each plate. Ampicillin and rifampin are used as positive controls against all bacterial strains in every experiment.
(§4) The overnight culture of a single colony is diluted in sterile Mueller-Hinton broth so that, after inoculation, each well contains approximately 5×10^5 CFU/mL. Within 15 minutes of preparation, […] of the adjusted inoculum suspension is added to the microliter plate. Each well is diluted with an equal volume of the antimicrobial agent/control substance diluted with sterile Mueller-Hinton broth. The inoculated microliter plate is incubated at 35° C. for 16-20 hours. The turbidity of each well is determined by measuring the absorbance at 595 nm on the BioRad Model 3550-UV microplate reader. The rows containing broth only (no cells) serve as a control, and the rows containing the titration of 1% DMSO serve as a control for 100% growth. The average of the broth only controls is subtracted from the average of each duplicate. This value is subsequently normalized to the average of the DMSO controls.

Assay [3] has as its system rifampicin susceptible strains. As to the kind of experiment: microbe, parasite or virus in culture. To be noted: Staphylococcus aureus. As for the experimental part: as §2, §3, §4

In brackets after ≈: the same amount, converted by molar mass. Like-named read-outs stand apart in the source and are kept apart here.

Chain of E. coli RNA polymerase (P0A8V2 whole entry): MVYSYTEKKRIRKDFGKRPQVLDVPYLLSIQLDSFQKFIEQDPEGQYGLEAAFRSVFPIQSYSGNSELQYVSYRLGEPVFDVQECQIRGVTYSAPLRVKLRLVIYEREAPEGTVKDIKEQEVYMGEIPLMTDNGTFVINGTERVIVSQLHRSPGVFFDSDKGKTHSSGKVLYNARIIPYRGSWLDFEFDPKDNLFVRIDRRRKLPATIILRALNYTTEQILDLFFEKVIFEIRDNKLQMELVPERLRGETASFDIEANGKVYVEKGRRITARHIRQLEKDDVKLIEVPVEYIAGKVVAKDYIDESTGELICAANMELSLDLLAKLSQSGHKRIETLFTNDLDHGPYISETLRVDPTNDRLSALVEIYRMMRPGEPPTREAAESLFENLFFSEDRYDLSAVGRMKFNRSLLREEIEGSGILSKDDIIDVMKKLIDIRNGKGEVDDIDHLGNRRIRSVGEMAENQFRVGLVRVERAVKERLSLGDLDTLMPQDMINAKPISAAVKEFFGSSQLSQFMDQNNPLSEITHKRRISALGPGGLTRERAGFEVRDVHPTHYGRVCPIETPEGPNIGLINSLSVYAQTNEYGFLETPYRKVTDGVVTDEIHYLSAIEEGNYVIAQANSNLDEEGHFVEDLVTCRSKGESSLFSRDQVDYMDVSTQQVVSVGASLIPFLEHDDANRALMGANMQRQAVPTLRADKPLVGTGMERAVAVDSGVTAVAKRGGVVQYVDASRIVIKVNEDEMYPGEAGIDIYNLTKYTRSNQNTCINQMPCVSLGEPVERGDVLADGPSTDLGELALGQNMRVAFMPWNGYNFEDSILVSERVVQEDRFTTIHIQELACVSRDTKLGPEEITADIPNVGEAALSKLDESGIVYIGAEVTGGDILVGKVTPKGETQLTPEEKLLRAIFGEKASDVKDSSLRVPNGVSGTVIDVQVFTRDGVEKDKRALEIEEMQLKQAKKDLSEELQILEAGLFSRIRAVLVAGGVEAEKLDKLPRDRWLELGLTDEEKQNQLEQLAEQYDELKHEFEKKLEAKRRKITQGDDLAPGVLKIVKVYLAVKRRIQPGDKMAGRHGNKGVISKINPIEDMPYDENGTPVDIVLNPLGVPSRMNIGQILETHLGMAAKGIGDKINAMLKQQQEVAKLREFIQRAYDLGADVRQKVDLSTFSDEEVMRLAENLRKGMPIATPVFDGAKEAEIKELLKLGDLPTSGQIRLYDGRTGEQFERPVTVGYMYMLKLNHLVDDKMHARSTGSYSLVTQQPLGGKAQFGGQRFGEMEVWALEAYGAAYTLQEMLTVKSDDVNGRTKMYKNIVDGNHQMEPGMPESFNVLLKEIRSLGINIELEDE
Chain of E. coli RNA polymerase (P0A8T7 whole entry): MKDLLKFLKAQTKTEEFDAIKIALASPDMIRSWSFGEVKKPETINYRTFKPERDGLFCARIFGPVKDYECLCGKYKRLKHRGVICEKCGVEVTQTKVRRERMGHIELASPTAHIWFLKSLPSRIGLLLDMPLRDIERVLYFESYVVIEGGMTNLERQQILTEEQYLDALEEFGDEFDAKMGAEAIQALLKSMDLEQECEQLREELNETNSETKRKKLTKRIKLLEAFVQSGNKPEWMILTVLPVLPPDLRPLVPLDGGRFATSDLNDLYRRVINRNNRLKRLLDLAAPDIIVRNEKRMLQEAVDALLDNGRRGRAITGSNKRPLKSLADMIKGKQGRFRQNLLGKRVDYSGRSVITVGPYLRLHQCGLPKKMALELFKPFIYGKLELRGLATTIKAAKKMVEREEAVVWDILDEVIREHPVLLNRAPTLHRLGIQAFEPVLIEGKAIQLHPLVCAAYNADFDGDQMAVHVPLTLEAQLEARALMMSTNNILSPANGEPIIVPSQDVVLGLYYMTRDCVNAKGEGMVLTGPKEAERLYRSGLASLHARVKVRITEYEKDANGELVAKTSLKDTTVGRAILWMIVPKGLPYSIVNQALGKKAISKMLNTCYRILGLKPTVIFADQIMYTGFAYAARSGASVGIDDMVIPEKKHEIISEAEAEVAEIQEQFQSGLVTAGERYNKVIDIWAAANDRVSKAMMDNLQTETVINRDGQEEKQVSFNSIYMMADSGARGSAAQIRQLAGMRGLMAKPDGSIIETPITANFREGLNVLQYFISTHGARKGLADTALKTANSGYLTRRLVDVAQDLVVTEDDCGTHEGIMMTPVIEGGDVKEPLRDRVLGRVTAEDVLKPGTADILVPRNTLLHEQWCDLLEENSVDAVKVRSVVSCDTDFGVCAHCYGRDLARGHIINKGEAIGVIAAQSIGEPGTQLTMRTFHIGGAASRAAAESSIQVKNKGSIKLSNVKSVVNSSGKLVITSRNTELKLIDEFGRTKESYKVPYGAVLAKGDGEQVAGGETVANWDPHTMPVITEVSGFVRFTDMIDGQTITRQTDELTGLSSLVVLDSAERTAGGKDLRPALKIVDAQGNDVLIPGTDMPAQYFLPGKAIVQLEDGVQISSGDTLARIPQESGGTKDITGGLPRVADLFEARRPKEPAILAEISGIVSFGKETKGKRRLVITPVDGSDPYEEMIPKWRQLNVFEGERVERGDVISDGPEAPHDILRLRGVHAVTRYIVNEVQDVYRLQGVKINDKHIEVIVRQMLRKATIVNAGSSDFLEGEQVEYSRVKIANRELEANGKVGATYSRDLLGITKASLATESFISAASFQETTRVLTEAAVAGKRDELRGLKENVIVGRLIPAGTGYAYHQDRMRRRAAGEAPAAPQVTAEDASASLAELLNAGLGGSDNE
Chain of E. coli RNA polymerase (P0A7Z4 whole entry partner): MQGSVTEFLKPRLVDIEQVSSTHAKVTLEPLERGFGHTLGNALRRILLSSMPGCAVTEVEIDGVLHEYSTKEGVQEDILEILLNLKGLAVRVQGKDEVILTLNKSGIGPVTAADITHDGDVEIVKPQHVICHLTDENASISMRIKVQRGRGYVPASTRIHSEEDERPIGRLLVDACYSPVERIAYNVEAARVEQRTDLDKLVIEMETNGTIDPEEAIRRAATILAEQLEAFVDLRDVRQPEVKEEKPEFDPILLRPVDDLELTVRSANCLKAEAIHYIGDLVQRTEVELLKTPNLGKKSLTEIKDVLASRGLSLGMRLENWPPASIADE
Chain of E. coli RNA polymerase (P0A800 whole entry partner): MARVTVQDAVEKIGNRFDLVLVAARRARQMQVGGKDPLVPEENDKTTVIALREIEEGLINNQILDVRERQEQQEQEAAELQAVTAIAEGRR

Consider `CCC/C(C)=C/C=C(\C)C(=O)c1c(O)cc(C(C)CC/C=C/NC(=O)OC)oc1=O` (racemic) [(±)-Myxo A, (±)-Myxopyronin A], for which the MIC in assay [1] is 4 to 8 µg/mL (≈ 9.58 to 19.2 µM); in the assay on S. aureus*, 8 µg/mL (≈ 19.2 µM); against S. aureus, 15 µg/mL (≈ 35.9 µM); in the assay with E. coli, greater than 30 µg/mL. Besides, the IC50 on E. coli RNA polymerase is 47.9 µM. Also, the “relative potency in in vitro transcription assay (FIG. 20a,b)” value on E. coli RNA polymerase is “equally potent as the natural product mixtures”.

As for `CCCC/C(C)=C/C=C(\C)C(=O)c1c(O)cc(C(C)CC/C=C/NC(=O)OC)oc1=O` (racemic) [(±)-Myxo B, (±)-Myxopyronin B], the MIC in assay [1] is 2 µg/mL (≈ 4.63 µM); with S. aureus* it was 0.5 µg/mL (≈ 1.16 µM); against S. aureus, 0.5 µg/mL (≈ 1.16 µM); with E. coli, greater than 30 µg/mL. In the assay with S. aureus (MIC values of Table II, B versus A), the “fold more potent cell-based activities than myxopyronin A” value is on record as “up to 30 fold”. Besides, at E. coli RNA polymerase, the IC50 is 11.6 µM. Also, the “relative potency in in vitro transcription assay (FIG. 20a,b)” value on E. coli RNA polymerase is given as “more potent molecule than A”.

For the compound `CO[C@H]1/C=C/O[C@@]2(C)Oc3c(C)c(O)c4c(O)c(c(/C=N/N5CCN(C)CC5)c(O)c4c3C2=O)NC(=O)/C(C)=C\C=C\[C@H](C)[C@H](O)[C@@H](C)[C@@H](O)[C@@H](C)[C@H](OC(C)=O)[C@@H]1C` [rifampicin], the MIC in assay [2] (read-out: MIC against resistant strains) was greater than 10 µM; in assay [2] (read-out: MIC against rifampicin resistant strains) it was greater than 100 µM; in assay [3] (read-out: MIC against susceptible strains, Example 9 statement b281) it was 10 µM (≈ 8.23 µg/mL); in assay [3] (read-out: MIC against susceptible strains, background statement b31) it was roughly 0.01 µM (≈ 0.00823 µg/mL).
